Test results as given in ChEMBL document CHEMBL1131296 (J Med Chem, 1998).

Key:
[1] = molecular target: T1, 5-hydroxytryptamine receptor 1A (Homo sapiens, UniProt P08908); test: Binding affinity at human cloned 5-hydroxytryptamine 1A receptor expressed in HeLa cells by [3H]8-hydroxy-2-(di-n-propylamino)tetraline displacement.; assay type: cell-based
T1 sequence (P08908 whole entry): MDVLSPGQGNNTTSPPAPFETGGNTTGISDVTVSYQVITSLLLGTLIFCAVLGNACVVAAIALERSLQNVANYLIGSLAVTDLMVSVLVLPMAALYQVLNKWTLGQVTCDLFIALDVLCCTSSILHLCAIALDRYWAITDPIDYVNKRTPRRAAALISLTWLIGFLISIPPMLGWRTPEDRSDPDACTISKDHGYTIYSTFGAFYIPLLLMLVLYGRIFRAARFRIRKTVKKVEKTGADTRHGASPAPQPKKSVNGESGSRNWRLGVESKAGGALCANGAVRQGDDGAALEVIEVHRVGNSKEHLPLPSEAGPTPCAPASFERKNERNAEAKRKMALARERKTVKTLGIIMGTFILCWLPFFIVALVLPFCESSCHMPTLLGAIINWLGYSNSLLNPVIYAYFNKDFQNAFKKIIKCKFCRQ

[2] = molecular target: T2, Alpha-1A adrenergic receptor (Homo sapiens, UniProt P35348); test: Binding affinity at human cloned Alpha-1A adrenergic receptor in chinese hamster ovary cells by [3H]-prazosin displacement.; assay type: cell-based, CHO
T2 sequence (P35348 whole entry): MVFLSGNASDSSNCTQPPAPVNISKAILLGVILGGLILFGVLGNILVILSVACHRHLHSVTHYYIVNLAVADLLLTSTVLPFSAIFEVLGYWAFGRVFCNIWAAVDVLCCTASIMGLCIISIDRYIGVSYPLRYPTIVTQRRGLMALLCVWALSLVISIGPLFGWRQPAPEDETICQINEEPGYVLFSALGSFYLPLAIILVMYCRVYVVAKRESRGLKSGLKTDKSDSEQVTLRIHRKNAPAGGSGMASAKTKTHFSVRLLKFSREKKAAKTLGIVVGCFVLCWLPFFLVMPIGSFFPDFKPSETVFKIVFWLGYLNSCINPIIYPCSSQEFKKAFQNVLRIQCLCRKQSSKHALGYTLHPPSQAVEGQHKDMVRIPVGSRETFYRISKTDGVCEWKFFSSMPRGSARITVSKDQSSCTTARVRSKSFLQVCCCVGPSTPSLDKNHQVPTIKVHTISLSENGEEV

[3] = molecular target: T3, Alpha-1D adrenergic receptor (Rattus norvegicus, UniProt P23944); test: Antagonism of norepinephrine induced contraction of rat isolated thoracic aorta.; assay type: functional, tissue-based; conditions: read-out: pA2 (converted)
T3 sequence (P23944 whole entry): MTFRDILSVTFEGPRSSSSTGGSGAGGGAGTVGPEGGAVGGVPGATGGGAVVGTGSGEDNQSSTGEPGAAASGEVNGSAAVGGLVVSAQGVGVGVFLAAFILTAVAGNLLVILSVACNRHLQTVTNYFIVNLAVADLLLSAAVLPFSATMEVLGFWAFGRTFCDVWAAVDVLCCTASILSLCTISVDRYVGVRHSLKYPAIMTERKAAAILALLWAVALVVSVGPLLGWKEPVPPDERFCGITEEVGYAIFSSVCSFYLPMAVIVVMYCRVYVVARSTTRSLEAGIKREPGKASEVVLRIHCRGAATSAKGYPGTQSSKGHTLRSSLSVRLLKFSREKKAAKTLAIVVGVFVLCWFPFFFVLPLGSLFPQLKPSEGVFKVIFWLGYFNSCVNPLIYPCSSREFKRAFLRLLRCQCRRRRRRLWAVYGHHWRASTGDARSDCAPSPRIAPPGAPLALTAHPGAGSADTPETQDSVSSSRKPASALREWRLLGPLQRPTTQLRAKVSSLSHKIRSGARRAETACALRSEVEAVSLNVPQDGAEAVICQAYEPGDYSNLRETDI

[4] = molecular target: T4, Adrenergic receptor alpha-2 (Rattus norvegicus, UniProt P22086+P19328+P22909); test: Antagonism of the clonidine-induced depression of twitch responses of rat isolated prostatic vas deferens.
T4 sequence (P22086 whole entry): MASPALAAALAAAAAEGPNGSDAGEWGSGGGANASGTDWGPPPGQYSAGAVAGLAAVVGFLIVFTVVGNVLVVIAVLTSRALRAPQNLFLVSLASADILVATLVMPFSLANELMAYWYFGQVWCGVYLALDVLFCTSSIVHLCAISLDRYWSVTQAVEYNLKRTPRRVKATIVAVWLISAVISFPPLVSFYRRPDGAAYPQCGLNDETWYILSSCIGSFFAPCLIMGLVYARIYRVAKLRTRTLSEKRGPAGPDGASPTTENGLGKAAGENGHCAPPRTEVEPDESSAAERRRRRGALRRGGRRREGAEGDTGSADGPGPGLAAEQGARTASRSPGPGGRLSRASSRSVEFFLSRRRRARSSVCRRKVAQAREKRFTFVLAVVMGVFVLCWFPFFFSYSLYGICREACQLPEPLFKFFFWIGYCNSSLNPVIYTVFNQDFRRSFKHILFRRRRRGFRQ
T4 sequence (P19328 whole entry): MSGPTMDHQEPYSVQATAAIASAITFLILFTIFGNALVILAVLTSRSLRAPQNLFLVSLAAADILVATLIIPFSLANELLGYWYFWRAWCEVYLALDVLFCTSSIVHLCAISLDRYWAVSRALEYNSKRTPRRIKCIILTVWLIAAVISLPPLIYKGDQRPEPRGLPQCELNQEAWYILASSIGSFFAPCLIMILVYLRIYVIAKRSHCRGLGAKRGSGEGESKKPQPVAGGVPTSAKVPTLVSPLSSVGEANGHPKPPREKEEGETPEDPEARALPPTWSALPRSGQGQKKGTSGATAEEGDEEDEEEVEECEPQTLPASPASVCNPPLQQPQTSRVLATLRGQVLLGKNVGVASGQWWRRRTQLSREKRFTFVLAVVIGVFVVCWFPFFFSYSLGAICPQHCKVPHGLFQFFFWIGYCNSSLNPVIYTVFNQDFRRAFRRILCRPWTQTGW
T4 sequence (P22909 whole entry): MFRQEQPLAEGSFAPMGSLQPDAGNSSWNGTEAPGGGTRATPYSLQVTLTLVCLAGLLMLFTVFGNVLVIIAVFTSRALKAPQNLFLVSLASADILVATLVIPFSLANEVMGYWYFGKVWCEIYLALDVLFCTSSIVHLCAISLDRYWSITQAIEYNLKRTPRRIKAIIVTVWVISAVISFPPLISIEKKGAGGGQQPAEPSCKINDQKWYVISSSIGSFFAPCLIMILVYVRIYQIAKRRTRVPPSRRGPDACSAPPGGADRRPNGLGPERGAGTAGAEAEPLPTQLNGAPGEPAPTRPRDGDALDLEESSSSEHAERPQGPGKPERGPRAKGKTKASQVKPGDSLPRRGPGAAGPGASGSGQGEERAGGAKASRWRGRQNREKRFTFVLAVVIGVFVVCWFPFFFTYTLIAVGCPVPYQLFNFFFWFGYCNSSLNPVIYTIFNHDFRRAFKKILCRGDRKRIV

Compound: COc1cc2nc(N(C)CCCCCCN(C)C(=O)c3cccc(CN(C)C)c3)nc(N)c2cc1OC
- Ki [1]: 741 nM
- Ki [2]: 0.324 nM
- Kb [3]: 5.5 nM
- pA2 [4]: < 5
